According to PubChem BioAssay AID1259407 (Chemical Carcinogenesis Research Information System (CCRIS), 2018):
Activity calls are given as the source filed them. No rule for the calls is given here.

Tested on: CCRIS mutagenicity, Ames/micronucleus/aberration tests
Assay: CCRIS mutagenicity studies
[1] = Test System: AMES SALMONELLA TYPHIMURIUM, Strain/Indicator: TA98, Metabolic Activation: NONE, Method: STANDARD PLATE
[2] = Test System: AMES SALMONELLA TYPHIMURIUM, Strain/Indicator: TA98, Metabolic Activation: RAT, LIVER, S-9, AROCLOR 1254, Method: STANDARD PLATE
[3] = Test System: AMES SALMONELLA TYPHIMURIUM, Strain/Indicator: TA100, Metabolic Activation: NONE, Method: STANDARD PLATE
[4] = Test System: AMES SALMONELLA TYPHIMURIUM, Strain/Indicator: TA100, Metabolic Activation: RAT, LIVER, S-9, AROCLOR 1254, Method: STANDARD PLATE
[5] = Test System: AMES SALMONELLA TYPHIMURIUM, Strain/Indicator: TA98, Metabolic Activation: NONE, Method: PREINCUBATION

## COc1ccc(CN(CC[N+](C)(C)[O-])c2ccccn2)cc1
Test System: AMES SALMONELLA TYPHIMURIUM, Strain/Indicator: TA97, Metabolic Activation: NONE, Method: STANDARD PLATE
  mutagenic call: inactive; negative
Test System: AMES SALMONELLA TYPHIMURIUM, Strain/Indicator: TA97, Metabolic Activation: RAT, LIVER, S-9, AROCLOR 1254, Method: STANDARD PLATE
  mutagenic call: inactive; negative
[1]
  mutagenic call: inactive; negative
[2]
  mutagenic call: inactive; negative
[3]
  mutagenic call: inactive; negative
[4]
  mutagenic call: inactive; negative
Test System: AMES SALMONELLA TYPHIMURIUM, Strain/Indicator: TA102, Metabolic Activation: NONE, Method: STANDARD PLATE
  mutagenic call: inactive; negative
Test System: AMES SALMONELLA TYPHIMURIUM, Strain/Indicator: TA102, Metabolic Activation: RAT, LIVER, S-9, AROCLOR 1254, Method: STANDARD PLATE
  mutagenic call: inactive; negative

## O=C1c2ccccc2-c2ccc([N+](=O)[O-])cc21
Test System: AMES SALMONELLA TYPHIMURIUM, Strain/Indicator: TA98 (1,8-DNP6), Metabolic Activation: NONE, Method: PREINCUBATION
  mutagenic call: active; positive
Test System: AMES SALMONELLA TYPHIMURIUM, Strain/Indicator: TA98(1,8-DNP6), Metabolic Activation: NONE, Method: STANDARD PLATE
  mutagenic call: active; positive
Test System: AMES SALMONELLA TYPHIMURIUM, Strain/Indicator: TA98 (NR), Metabolic Activation: NONE, Method: PREINCUBATION
  mutagenic call: active; positive
Test System: AMES SALMONELLA TYPHIMURIUM, Strain/Indicator: TA98(NR), Metabolic Activation: NONE, Method: STANDARD PLATE
  mutagenic call: active; positive
Test System: AMES SALMONELLA TYPHIMURIUM, Strain/Indicator: TA98(NR), Metabolic Activation: RAT LIVER S-9 (10%), Method: PREINCUBATION
  mutagenic call: active; positive
Test System: AMES SALMONELLA TYPHIMURIUM, Strain/Indicator: TA98(NR), Metabolic Activation: RAT LIVER S-9, 3-METHYLCHOLANTHRENE (10%), Method: PREINCUBATION
  mutagenic call: active; positive
Test System: AMES SALMONELLA TYPHIMURIUM, Strain/Indicator: TA98(NR), Metabolic Activation: RAT LIVER S-9, BETA-NAPHTHAFLAVONE (10%), Method: PREINCUBATION
  mutagenic call: active; positive
Test System: AMES SALMONELLA TYPHIMURIUM, Strain/Indicator: TA98(NR), Metabolic Activation: RAT LIVER S-9, PCB (10%), Method: PREINCUBATION
  mutagenic call: active; positive
Test System: AMES SALMONELLA TYPHIMURIUM, Strain/Indicator: TA98(NR), Metabolic Activation: RAT LIVER S-9, PHENOBARBITAL (10%), Method: PREINCUBATION
  mutagenic call: active; positive
[5]
  mutagenic call: active; positive
[1]
  mutagenic call: active; positive
[2]
  mutagenic call: active; positive
[3]
  mutagenic call: active; positive
[4]
  mutagenic call: active; positive
Test System: AMES SALMONELLA TYPHIMURIUM, Strain/Indicator: TA1538, Metabolic Activation: NONE
  mutagenic call: active; positive
Test System: AMES SALMONELLA TYPHIMURIUM, Strain/Indicator: TA7001, Metabolic Activation: NONE, Method: PREINCUBATION
  mutagenic call: inactive; negative
Test System: AMES SALMONELLA TYPHIMURIUM, Strain/Indicator: TA7002, Metabolic Activation: NONE, Method: PREINCUBATION
  mutagenic call: active; positive
Test System: AMES SALMONELLA TYPHIMURIUM, Strain/Indicator: TA7003, Metabolic Activation: NONE, Method: PREINCUBATION
  mutagenic call: inactive; negative
Test System: AMES SALMONELLA TYPHIMURIUM, Strain/Indicator: TA7004, Metabolic Activation: NONE, Method: PREINCUBATION
  mutagenic call: active; positive
Test System: AMES SALMONELLA TYPHIMURIUM, Strain/Indicator: TA7005, Metabolic Activation: NONE, Method: PREINCUBATION
  mutagenic call: active; positive
Test System: AMES SALMONELLA TYPHIMURIUM, Strain/Indicator: TA7006, Metabolic Activation: NONE, Method: PREINCUBATION
  mutagenic call: active; positive
Test System: AMES SALMONELLA TYPHIMURIUM, Strain/Indicator: YG7131, Metabolic Activation: NONE
  mutagenic call: active; positive

## CC(C)(Oc1ccc(C2CCCc3ccccc32)cc1)C(=O)O (stereo unspecified)
Test System: AMES SALMONELLA TYPHIMURIUM, Strain/Indicator: TA98, Metabolic Activation: NONE
  mutagenic call: inactive; negative
Test System: AMES SALMONELLA TYPHIMURIUM, Strain/Indicator: TA98, Metabolic Activation: RAT, LIVER, S-9, AROCLOR 1254
  mutagenic call: inactive; negative
Test System: AMES SALMONELLA TYPHIMURIUM, Strain/Indicator: TA102, Metabolic Activation: NONE
  mutagenic call: inactive; negative
Test System: AMES SALMONELLA TYPHIMURIUM, Strain/Indicator: TA102, Metabolic Activation: RAT, LIVER, S-9, AROCLOR 1254
  mutagenic call: inactive; negative
Test System: AMES SALMONELLA TYPHIMURIUM, Strain/Indicator: TA104, Metabolic Activation: NONE
  mutagenic call: inactive; negative
Test System: AMES SALMONELLA TYPHIMURIUM, Strain/Indicator: TA104, Metabolic Activation: RAT, LIVER, S-9, AROCLOR 1254
  mutagenic call: inactive; negative
Test System: UDS RAT HEPATOCYTES, Strain/Indicator: THY INCORP, Metabolic Activation: NONE, Method: LIQUID SCINTILLATION COUNTING
  mutagenic call: inactive; negative

## COc1cc(OC)c2nc3occc3c(OC)c2c1
Test System: AMES SALMONELLA TYPHIMURIUM, Strain/Indicator: TA98, Metabolic Activation: RAT, LIVER, S-9, PHENOBARBITAL, Method: STANDARD PLATE
  mutagenic call: active; positive
Test System: AMES SALMONELLA TYPHIMURIUM, Strain/Indicator: TA100, Metabolic Activation: RAT, LIVER, S-9, PHENOBARBITAL, Method: STANDARD PLATE
  mutagenic call: active; positive

## C[Si](Cl)Cl
Test System: AMES SALMONELLA TYPHIMURIUM, Strain/Indicator: TA98, Metabolic Activation: HAMSTER, LIVER, S-9, AROCLOR 1254, Method: PREINCUBATION
  mutagenic call: inactive; negative
[5]
  mutagenic call: inactive; negative
Test System: AMES SALMONELLA TYPHIMURIUM, Strain/Indicator: TA98, Metabolic Activation: RAT, LIVER, S-9, AROCLOR 1254, Method: PREINCUBATION
  mutagenic call: inactive; negative
Test System: AMES SALMONELLA TYPHIMURIUM, Strain/Indicator: TA100, Metabolic Activation: HAMSTER, LIVER, S-9, AROCLOR 1254, Method: PREINCUBATION
  mutagenic call: inactive; negative
Test System: AMES SALMONELLA TYPHIMURIUM, Strain/Indicator: TA100, Metabolic Activation: NONE, Method: PREINCUBATION
  mutagenic call: inactive; negative
Test System: AMES SALMONELLA TYPHIMURIUM, Strain/Indicator: TA100, Metabolic Activation: RAT, LIVER, S-9, AROCLOR 1254, Method: PREINCUBATION
  mutagenic call: inactive; negative
Test System: AMES SALMONELLA TYPHIMURIUM, Strain/Indicator: TA1535, Metabolic Activation: HAMSTER, LIVER, S-9, AROCLOR 1254, Method: PREINCUBATION
  mutagenic call: inactive; negative
Test System: AMES SALMONELLA TYPHIMURIUM, Strain/Indicator: TA1535, Metabolic Activation: NONE, Method: PREINCUBATION
  mutagenic call: inactive; negative
Test System: AMES SALMONELLA TYPHIMURIUM, Strain/Indicator: TA1535, Metabolic Activation: RAT, LIVER, S-9, AROCLOR 1254, Method: PREINCUBATION
  mutagenic call: inactive; negative
Test System: AMES SALMONELLA TYPHIMURIUM, Strain/Indicator: TA1537, Metabolic Activation: HAMSTER, LIVER, S-9, AROCLOR 1254, Method: PREINCUBATION
  mutagenic call: inactive; negative
Test System: AMES SALMONELLA TYPHIMURIUM, Strain/Indicator: TA1537, Metabolic Activation: NONE, Method: PREINCUBATION
  mutagenic call: inactive; negative
Test System: AMES SALMONELLA TYPHIMURIUM, Strain/Indicator: TA1537, Metabolic Activation: RAT, LIVER, S-9, AROCLOR 1254, Method: PREINCUBATION
  mutagenic call: inactive; negative
Test System: AMES SALMONELLA TYPHIMURIUM, Strain/Indicator: TA1538, Metabolic Activation: HAMSTER, LIVER, S-9, AROCLOR 1254, Method: PREINCUBATION
  mutagenic call: inactive; negative
Test System: AMES SALMONELLA TYPHIMURIUM, Strain/Indicator: TA1538, Metabolic Activation: NONE, Method: PREINCUBATION
  mutagenic call: inactive; negative
Test System: AMES SALMONELLA TYPHIMURIUM, Strain/Indicator: TA1538, Metabolic Activation: RAT, LIVER, S-9, AROCLOR 1254, Method: PREINCUBATION
  mutagenic call: inactive; negative
Test System: MOUSE LYMPHOMA, Strain/Indicator: L5178Y (TK+/TK-), Metabolic Activation: NONE, Method: SUSPENSION/PLATE
  mutagenic call: inactive; negative. reevaluation of results: negative
Test System: MOUSE LYMPHOMA, Strain/Indicator: L5178Y (TK+/TK-), Metabolic Activation: RAT, LIVER, S-9, AROCLOR 1254, Method: SUSPENSION/PLATE
  mutagenic call: inactive; negative. reevaluation of results: negative
